According to US20070238723A1, “Benzoxazinyl-amidocyclopentyl-heterocyclic modulators of chemokine receptors” (priority 2004, published 2007):

Target: T1, CCR-2 receptor (Homo sapiens, UniProt P41597)
T1 construct: the endogenous CCR-2 receptor on various cell types including monocytes, THP-1 cells; endogenous in cells; host or cells: monocytes, THP-1 cells (or unnamed eukaryotic cells expressing the cloned receptor)
Assay: CCR-2 binding assay (inhibition of 125I-MCP-1 binding)
Settings: qualitative comparison among separated isomers; assay not given
Description: Receptor affinity in a CCR-2 binding assay was determined by measuring inhibition of ^125I-MCP-1 to the endogenous CCR-2 receptor on various cell types including monocytes, THP-1 cells, or after heterologous expression of the cloned receptor in eukaryotic cells. The cells were suspended in binding buffer (50 mM HEPES, pH 7.2, 5 mM MgCl2, 1 mM CaCl2, and 0.50% BSA) with and added to test compound or DMSO and ^125I-MCP-1 at room temperature for 1 h to allow binding. The cells were then collected on GFB filters, washed with 25 mM HEPES buffer containing 500 mM NaCl and cell bound ^125I-MCP-1 was quantified.

T1 sequence (P41597 whole entry): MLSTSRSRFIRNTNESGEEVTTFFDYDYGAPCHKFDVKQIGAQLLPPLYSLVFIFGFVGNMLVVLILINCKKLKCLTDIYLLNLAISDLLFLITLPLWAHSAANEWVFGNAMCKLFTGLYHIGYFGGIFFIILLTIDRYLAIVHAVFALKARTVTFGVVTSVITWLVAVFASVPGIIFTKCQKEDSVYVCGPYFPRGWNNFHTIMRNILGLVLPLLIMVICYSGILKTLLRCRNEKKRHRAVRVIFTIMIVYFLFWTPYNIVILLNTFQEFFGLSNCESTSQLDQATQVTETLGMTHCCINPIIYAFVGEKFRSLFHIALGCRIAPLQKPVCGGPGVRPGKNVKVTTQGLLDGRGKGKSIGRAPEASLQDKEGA

SMILES: CCOC(=O)c1cccc(C2CCN([C@@H]3CC[C@](C(C)=O)(C(=O)N4COc5ccc(C(F)(F)F)cc5C4)C3)CC2)c1 (single isomer, unassigned) [Peak 3]
- potency relative to other stereoisomers: best potency
